From ChEMBL document CHEMBL1201862, “PubChem BioAssay data set” (2004)
Calls of active or inactive are those of the source.

What was measured:
Caspase-3 = target: T1, Caspase-3 (Homo sapiens, UniProt P42574); format: functional;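 further: Dose-response selectivity test against caspase-3 for candidate inhibitors of sentrin-specific proteases (SENPs)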
T1 sequence (P42574 whole entry): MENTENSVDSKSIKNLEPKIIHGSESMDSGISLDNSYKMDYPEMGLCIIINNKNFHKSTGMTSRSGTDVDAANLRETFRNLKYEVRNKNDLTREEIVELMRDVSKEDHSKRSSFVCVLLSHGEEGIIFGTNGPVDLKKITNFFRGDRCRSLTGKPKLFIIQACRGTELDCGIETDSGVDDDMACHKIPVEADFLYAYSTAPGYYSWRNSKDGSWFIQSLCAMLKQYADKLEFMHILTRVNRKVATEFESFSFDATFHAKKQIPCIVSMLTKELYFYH

[1] = target: T2, Sentrin-specific protease 7 (Homo sapiens, UniProt Q9BQF6); format: functional;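 further: Luminescence-based dose-response confirmation of ultra-high-throughput screening hits, measuring inhibition of SENP7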
T2 sequence (Q9BQF6 whole entry): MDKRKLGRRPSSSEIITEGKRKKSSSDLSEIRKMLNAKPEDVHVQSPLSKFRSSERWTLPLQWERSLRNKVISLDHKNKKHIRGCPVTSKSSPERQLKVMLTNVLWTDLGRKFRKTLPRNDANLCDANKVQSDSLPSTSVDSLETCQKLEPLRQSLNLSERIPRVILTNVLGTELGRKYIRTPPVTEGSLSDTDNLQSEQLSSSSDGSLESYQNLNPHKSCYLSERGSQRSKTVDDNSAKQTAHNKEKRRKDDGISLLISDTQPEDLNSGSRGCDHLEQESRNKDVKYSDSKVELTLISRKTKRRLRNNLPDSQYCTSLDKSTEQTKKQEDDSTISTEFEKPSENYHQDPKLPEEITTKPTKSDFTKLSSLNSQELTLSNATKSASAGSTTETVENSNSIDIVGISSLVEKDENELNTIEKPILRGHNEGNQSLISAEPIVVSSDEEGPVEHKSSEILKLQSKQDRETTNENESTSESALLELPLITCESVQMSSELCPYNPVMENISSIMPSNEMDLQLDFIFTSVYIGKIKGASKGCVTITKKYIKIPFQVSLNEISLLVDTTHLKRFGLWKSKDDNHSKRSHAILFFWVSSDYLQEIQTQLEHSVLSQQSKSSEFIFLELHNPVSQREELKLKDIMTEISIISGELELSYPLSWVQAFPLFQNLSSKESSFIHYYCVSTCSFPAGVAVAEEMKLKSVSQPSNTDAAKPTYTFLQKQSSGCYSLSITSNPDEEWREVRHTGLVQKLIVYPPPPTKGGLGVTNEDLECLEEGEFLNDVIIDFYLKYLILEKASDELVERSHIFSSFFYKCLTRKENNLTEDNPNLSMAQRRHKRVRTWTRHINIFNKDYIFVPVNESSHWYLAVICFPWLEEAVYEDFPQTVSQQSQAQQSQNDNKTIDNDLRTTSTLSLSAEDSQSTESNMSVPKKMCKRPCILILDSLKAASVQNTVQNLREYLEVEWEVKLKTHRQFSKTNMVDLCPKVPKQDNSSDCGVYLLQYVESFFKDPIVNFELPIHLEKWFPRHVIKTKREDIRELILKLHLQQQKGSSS

[2] = target: T3, Sentrin-specific protease 8 (Homo sapiens, UniProt Q96LD8); format: functional;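 further: luminescence read-out of SENP8 inhibition, dose-response confirmation following an ultra-high-throughput screen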
T3 sequence (Q96LD8 whole entry): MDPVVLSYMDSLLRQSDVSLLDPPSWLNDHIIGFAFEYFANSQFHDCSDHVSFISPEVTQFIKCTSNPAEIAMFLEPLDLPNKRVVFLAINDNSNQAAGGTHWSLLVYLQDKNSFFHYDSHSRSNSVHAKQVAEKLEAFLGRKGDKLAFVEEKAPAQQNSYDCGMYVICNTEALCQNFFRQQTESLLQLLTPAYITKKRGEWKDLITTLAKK

[3] = target: T4, Sentrin-specific protease 6 (Homo sapiens, UniProt Q9GZR1); format: functional;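 further: Luminescence-based dose-response confirmatory assay of SENP6 inhibition, following up an ultra-high-throughput screen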
T4 sequence (Q9GZR1 whole entry): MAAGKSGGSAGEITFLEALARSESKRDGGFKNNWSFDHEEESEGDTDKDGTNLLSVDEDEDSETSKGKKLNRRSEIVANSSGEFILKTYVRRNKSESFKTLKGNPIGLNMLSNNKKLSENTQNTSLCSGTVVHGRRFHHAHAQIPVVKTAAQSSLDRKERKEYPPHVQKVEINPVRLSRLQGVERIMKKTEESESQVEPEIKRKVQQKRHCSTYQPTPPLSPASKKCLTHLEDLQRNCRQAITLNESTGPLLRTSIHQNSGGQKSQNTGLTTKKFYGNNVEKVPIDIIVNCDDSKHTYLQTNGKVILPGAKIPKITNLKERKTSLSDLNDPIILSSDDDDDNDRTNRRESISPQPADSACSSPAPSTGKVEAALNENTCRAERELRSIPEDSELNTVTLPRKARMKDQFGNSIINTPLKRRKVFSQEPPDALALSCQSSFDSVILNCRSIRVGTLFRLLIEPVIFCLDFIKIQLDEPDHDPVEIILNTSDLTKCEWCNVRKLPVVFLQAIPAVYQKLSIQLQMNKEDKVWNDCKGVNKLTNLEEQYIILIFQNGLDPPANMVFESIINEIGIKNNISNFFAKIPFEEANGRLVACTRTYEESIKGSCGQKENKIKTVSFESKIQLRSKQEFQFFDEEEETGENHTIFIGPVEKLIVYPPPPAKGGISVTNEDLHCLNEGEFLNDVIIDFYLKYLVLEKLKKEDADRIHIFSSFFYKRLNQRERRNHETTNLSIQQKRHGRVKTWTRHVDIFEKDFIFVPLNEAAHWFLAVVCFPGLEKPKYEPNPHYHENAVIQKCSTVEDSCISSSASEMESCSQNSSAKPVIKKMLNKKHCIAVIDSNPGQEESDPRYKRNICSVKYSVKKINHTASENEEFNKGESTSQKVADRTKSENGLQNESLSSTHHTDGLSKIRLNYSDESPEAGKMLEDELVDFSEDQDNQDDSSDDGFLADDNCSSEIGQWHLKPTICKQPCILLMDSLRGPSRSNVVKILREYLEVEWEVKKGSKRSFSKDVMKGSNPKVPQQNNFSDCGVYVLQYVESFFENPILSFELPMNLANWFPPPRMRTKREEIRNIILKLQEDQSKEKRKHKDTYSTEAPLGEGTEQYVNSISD

HEK293 = experiment: EBV LMP1 TES2 canonical NF-kB signalling blockers – cell-based, HEK293, luciferase, cherry-pick, dose response (AID 588343); format: functional; settings: Homo sapiens
[4] = system: Streptococcus sp. 'group A'; experiment: Streptococcus pyogenes SK(-)GAS viability under kanamycin – luminescence, BacTiterGlo, confirmation, counter-screen for streptokinase expression inhibitor project, dose response (AID 1900); format: functional, organism-based
[5] = NIH-3T3 fibroblast cytotoxicity, dose response, cytotoxicity control, cell-based, fluorescence, Alamar Blue, secondary assay (AID 2327); format: functional;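 further: NIH-3T3 mouse fibroblasts cultured with fluconazole at 8 µg/mL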
[6] = alpha-synuclein stem-loop translation blockers – luminescence, H4 neuroglioblastoma cells, dose confirmation, confirmation (AID 2454); format: functional, cell-based;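 further: H4 neuroglioblastoma cells carrying an alpha-synuclein 5'UTR luciferase reporter; potency for inhibition of the luciferase signal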
cells = format: functional, cell-based
[7] = luciferase reporter signal suppression in cells – H4 neuroglioma cells, luminescence, dose response (AID 1990); format: functional, cell-based
[8] = Luminescence Cell-Based Dose Response HTS to Identify Inhibitors of 5'UTR Stem-Loop Driven Prion Protein mRNA Translation in H4 Neuroglioblastoma Cells. [Related pubchem assays: 1827 (Project Summary), 1813 (Primary HTS)]; format: functional
[9] = fluconazole-exposed Candida albicans growth modulators – fluorescence, retest, confirmation (AID 2467); format: functional, cell-based
[10] = alpha-synuclein stem-loop luciferase translation blockers – H4 neuroglioma cells, luminescence, confirmation (AID 1988); format: functional, cell-based
Nonstructural protein 1 = Nonstructural protein 1 (Influenza A virus, UniProt Q194T2); format: functional, Influenza A virus (A/California/07/2009(H1N1))
Sequence of Nonstructural protein 1 (Q194T2 whole entry): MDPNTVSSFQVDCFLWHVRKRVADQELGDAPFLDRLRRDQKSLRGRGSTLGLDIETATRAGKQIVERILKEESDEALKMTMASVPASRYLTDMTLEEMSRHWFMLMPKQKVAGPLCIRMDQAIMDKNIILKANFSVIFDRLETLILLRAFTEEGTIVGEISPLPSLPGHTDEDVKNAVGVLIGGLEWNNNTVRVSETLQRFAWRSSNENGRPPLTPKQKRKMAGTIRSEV

Streptococcus = experiment: GAS UMAA2166 growth inhibition – luminescence, BacTiterGlo, counter-screen for streptokinase expression inhibitor project, dose response (AID 1915); format: functional, organism-based;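 further: potency for reduction of bacterial viability or growth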
[11] = target: ATP-dependent molecular chaperone HSP82 (Candida albicans (strain WO-1) (Yeast), UniProt C4YTQ8); experiment: steroid-induced GRE reporter decrease in yeast – S. cerevisiae, luminescence, Hsp90 inhibitor project, dose response (AID 2400); format: functional, cell-based;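 further: beta-galactosidase luminescence from glucocorticoid response element reporter as proxy for Hsp90 function; inhibitor potency where signal loss means Hsp90 inhibition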
Sequence of ATP-dependent molecular chaperone HSP82 (C4YTQ8 whole entry): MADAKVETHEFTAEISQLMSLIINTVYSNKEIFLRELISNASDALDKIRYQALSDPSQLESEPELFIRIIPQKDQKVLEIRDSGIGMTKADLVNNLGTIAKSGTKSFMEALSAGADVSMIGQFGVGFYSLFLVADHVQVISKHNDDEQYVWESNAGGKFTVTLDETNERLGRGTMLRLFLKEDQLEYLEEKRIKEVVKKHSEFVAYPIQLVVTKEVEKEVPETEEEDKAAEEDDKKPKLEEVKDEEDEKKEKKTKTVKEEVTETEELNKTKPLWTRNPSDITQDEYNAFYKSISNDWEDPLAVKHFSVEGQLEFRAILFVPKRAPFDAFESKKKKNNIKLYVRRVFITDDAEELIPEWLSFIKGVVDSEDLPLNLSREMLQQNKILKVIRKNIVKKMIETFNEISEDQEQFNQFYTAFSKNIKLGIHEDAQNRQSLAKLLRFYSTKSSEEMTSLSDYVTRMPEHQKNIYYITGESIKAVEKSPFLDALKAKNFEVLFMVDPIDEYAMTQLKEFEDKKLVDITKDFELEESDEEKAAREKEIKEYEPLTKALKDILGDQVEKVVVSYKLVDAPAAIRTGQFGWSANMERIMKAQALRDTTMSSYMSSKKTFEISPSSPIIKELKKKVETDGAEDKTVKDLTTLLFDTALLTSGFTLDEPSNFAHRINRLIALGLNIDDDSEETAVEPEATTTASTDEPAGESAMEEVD

Streptokinase A = target: T5, Streptokinase A (Streptococcus pyogenes serotype M1, UniProt P10520); experiment: viability-normalized secreted streptokinase activity reduction – plasminogen activation absorbance, OD405, dose response (AID 1914); format: functional, Streptococcus pyogenes M1 GAS;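 further: secreted streptokinase activity via plasminogen activation per viability signal from cell pellet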
T5 sequence (P10520 whole entry): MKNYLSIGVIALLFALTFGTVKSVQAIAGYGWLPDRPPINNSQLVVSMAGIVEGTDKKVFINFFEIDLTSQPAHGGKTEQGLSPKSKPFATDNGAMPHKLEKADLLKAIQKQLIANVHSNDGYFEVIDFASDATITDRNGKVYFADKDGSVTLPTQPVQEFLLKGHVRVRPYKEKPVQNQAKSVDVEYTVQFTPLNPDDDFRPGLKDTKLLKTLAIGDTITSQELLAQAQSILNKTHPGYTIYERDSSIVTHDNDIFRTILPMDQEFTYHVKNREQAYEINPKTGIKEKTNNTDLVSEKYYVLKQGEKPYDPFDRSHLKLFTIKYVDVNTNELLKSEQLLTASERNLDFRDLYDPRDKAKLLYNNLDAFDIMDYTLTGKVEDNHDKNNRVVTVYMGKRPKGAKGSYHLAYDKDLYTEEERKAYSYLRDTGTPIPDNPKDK

BJ = experiment: growth inhibition of engineered Ras-driven BJ cells – cell-based, alamar blue fluorescence, cherrypicked samples, dose response (AID 2631); format: functional; settings: Homo sapiens;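 further: confirmatory dose-response assay in RAS-dependent BJ fibroblasts engineered with TERT, LT and ST, with cytotoxicity read by fluorescence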
[12] = target: Heat shock protein HSP 90-alpha (Homo sapiens, UniProt P07900); format: functional, organism-based
[13] = target: T6, Serine/threonine-protein phosphatase (Candida dubliniensis (strain CD36 / CBS 7987 / NCPF 3949 / NRRLY-17841) (Yeast), UniProt B9W6M3); experiment: blockers of CaCl2-induced CDRE-lacZ signaling – S. cerevisiae, luminescence, secondary, dose response (AID 2388); format: functional, cell-based;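 further: yeast reporter cells carrying a calcineurin-responsive lacZ construct stimulated with calcium chloride; luminescent beta-galactosidase reporter signal in whole cells rather than isolated phosphatase activity; potency for inhibition where a drop in reporter signal means calcineurin blockade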
T6 sequence (B9W6M3 whole entry): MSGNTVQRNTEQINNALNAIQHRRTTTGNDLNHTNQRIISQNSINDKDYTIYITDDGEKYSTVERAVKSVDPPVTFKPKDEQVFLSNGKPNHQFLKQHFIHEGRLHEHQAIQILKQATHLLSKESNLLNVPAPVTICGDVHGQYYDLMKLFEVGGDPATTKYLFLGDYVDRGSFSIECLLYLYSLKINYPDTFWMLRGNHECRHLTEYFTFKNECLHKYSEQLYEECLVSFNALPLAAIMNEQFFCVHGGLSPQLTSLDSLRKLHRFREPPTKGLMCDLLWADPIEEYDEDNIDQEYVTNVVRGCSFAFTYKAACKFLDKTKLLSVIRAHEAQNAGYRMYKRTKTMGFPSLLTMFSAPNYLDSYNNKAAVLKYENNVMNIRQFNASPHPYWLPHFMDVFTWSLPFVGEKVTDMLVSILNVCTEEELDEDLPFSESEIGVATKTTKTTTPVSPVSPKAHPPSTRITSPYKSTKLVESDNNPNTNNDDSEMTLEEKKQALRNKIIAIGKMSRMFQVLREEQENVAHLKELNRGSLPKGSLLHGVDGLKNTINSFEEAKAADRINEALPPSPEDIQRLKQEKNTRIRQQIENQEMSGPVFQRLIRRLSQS

[14] = luciferase reporter signal reduction – luminescence, H4-C neuroglioblastoma cells, dose response (AID 2458); format: functional, cell-based;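 further: H4 neuroglioblastoma cells stably carrying a luciferase reporter gene fusion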

COn1c(-c2ccccc2)nc2ccc(Cl)cc21
active: IC50 (Caspase-3) 20.1 µM | IC50 [1] 13.1 µM | IC50 [2] 34.9 µM | IC50 [3] 30 µM

CC1CCCN(C(=O)c2ccc(-c3ccccc3Cl)o2)C1 (stereo unspecified)
active: IC50 (Caspase-3) 34.7 µM | IC50 [1] 15.2 µM | IC50 [2] 31.4 µM | IC50 [3] 27.6 µM

COc1ccc(-c2csc3ncnc(NCCO)c23)cc1
active: AC50 (HEK293) 13.9 µM

CC(C)CC(=NNC(=O)c1ccncc1)c1cc(Cl)ccc1O
active: AC50 (HEK293) 4.28 µM

CCOC(=O)/C(=N\Nc1ncnc2ccccc12)c1ccc(OC)cc1
active: IC50 (Caspase-3) 16.9 µM | IC50 [1] 3.39 µM | IC50 [2] 14.2 µM | IC50 [3] 5.23 µM

O=C(N/N=C/c1cc2c3c(c1O)CCCN3CCC2)c1ccccc1O
active: EC50 [4] 8.16 µM | EC50 [5] 23.7 µM | EC50 [6] 0.798 µM | EC50 (cells) 0.687 µM | EC50 [7] 2.89 µM | EC50 [8] 0.102 µM | EC50 [9] 0.429 µM | EC50 [10] < 0.1 µM | IC50 (Nonstructural protein 1) 3.22 µM | EC50 (Streptococcus) 12 µM | EC50 [11] 18.1 µM | EC50 (BJ) 22.4 µM | AC50 [12] 2.14 µM | EC50 [13] 18.2 µM | EC50 [14] 0.558 µM | AC50 (HEK293) 5.6 µM
> 150 µM (not active): EC50 (Streptokinase A)
